Measured values as given in patent publication US20070036737A1, “PRODUCTS FOR TOPICAL A[…] LYSOPHO[…] FATTY ACIDS” (priority 2005, published 2007).

System: neuromuscular junction
Experiment: inhibition of the ex-vivo neuromuscular junction preparation (FIG. 1)
Set-up: species or system mouse
Conditions: single molecule alone
Description: The Applicants arrived at the results of the present invention in the course of their studies on the mechanism of action of snake presynaptic PLA2 neurotoxins. These presynaptic neurotoxins are major components of the venom of many poisonous snakes. Starting from: a) the established fact that these neurotoxins are endowed with a phospholipase A2 (PLA2) activity and that such activity leads to the production of LysoPLs and FAs following the hydrolysis of the fatty acid ester bond in position 2 of phospholipids (4); b) the fact that lysophospholipids and fatty acids in the appropriate membrane localization favor membrane fusion and inhibit membrane fission (5), and that c) such biological activities would lead to the depletion of synaptic vesicles from nerve terminals, as the one observed by electron microscopy upon exposure to the snake presynaptic PLA2 neurotoxins (6,7), the Applicants decided to test the effect of a mixture of lysophospholipids and fatty acids on the neuromuscular junction both in an ex-vivo preparation and in an in-vivo system.
Similar data were obtained with other lysoPLs varying with respect to R and/or with respect to R′. […] In other words, the two molecules act in a synergistic mode and this is at the very basis of the present patent. […]

Row | Structure (SMILES) | inhibition of the neuromuscular junction
1 | CCCCCCCCCCCCCC(=O)OC[C@@H](O)COP(=O)([O-])OCC[N+](C)(C)C [lysoPC, 1-Myristoyl-sn-glycero-3-phosphocholine] | unable to elicit a substantial inhibition
2 | CCCCCCCC/C=C\CCCCCCCC(=O)O [OA, oleic acid] | unable to elicit a substantial inhibition
